Test results: ChEMBL document CHEMBL1137590, “(3R)-4-[(3R)-3-Amino-4-(2,4,5-trifluorophenyl)butanoyl]-3-(2,2,2-trifluoroethyl)-1,4-diazepan-2-one, a selective dipeptidyl peptidase IV inhibitor for the treatment of type 2 diabetes” (Bioorg Med Chem Lett, 2007)

Legend:
Dipeptidyl peptidase 2 = Dipeptidyl peptidase 2 (Homo sapiens, UniProt Q9UHL4); assay: In vitro inhibition of QPP dipeptidylpeptidase II
[1] = Plasma clearance in dogs; assay type: ADME, organism-based, Canis lupus familiaris; details: dog, read-out: Clp
[2] = Half-life in dogs; assay type: ADME, organism-based, Canis lupus familiaris; details: dog, in vivo
[3] = Oral bioavailability in dogs; assay type: ADME, organism-based, Canis lupus familiaris; details: dog, in vivo
Canis familiaris = species: Canis familiaris; assay: Dose-normalized area under plasma concentration vs time curve in dogs; assay type: ADME, organism-based, Canis lupus familiaris; details: dog, in vivo
[4] = Plasma clearance in rats; assay type: ADME, organism-based; details: rat, read-out: Clp
[5] = Half-life in rats; assay type: ADME, organism-based; details: rat, in vivo
[6] = Oral bioavailability in rats; assay type: ADME, organism-based; details: rat, in vivo
Rattus norvegicus = species: Rattus norvegicus; assay: Dose-normalized area under plasma concentration vs time curve in rats; assay type: ADME, organism-based; details: in vivo

Row | IC50 (Dipeptidyl peptidase 2) [µM] | clearance [1] [mL/min/kg] | half-life [2] [h] | bioavailability [3] [%] | AUC (Canis familiaris) | clearance [4] [mL/min/kg] | half-life [5] [h] | bioavailability [6] [%] | AUC (Rattus norvegicus) | Structure (SMILES)
1 | > 100 |  |  |  |  |  |  |  |  | N[C@@H](CC(=O)N1CCCNC(=O)C1)Cc1cc(F)c(F)cc1F
2 |  | 18 | 9 | 95 | 2.2 uM h/(mg/kg) | 94 | 2 | 36 | 0.2 uM h/(mg/kg) | N[C@@H](CC(=O)N1CCCNC(=O)[C@H]1CC(F)(F)F)Cc1cc(F)c(F)cc1F
3 |  | 9 | 4.3 | 100 | 8.5 uM h/(mg/kg) | 88 | 1 | 26 | 0.15 uM h/(mg/kg) | C[C@@H]1C(=O)NCCCN1C(=O)C[C@H](N)Cc1cc(F)c(F)cc1F
